Results taken from article PMC11065314, “Identification of compounds that cause axonal dieback without cytotoxicity in dorsal root ganglia explants and intervertebral disc cells with potential to treat pain via denervation” (PLOS ONE, 2024).
Where “and” joins values, the source holds several entries; their conditions need not be identical. Equal values may be shown once. Where a name gives a salt, the structure may show the parent alone. Read-outs that look alike come from different tables or passages of the source.

Legend:
[1] = tested on: dissociated DRG neurons from embryonic mice; set-up: method as in PMID 31484833; conditions: 40 nM; cited from earlier work
adult rat DRG neurons = tested on: adult rat DRG neurons; set-up: method as in PMID 32388569; conditions: below 1000 nM; cited from earlier work
Human NP cells = test: Quantification of viable NP cells (LIVE/DEAD staining); assay type: cell-based
Protocol: (§1) Nucleus pulposus (NP) cells are native matrix-producing cells at the core of intervertebral discs. To repurpose axonal dieback compounds to denervate aberrant nerve fibers in discs related to chronic LBP, the cytocompatibility of these compounds with NP cells must be evaluated. Human NP cells (Sciencell, 4800) from donor 1 (Lot #5954) and donor 2 (Lot# 21579) were cultured according to previously established protocol in our lab adapted from manufacturer’s instructions. Briefly, passage three cells from both donors were expanded in Poly-L-lysine (PLL) (Sciencell, 413) coated T75 flasks. Cells were then lifted and reseeded at 5,000 cells/cm^2 onto two PLL-coated 48-well plates (Greiner Bio-One, 677180) and allowed to attach overnight before treating with Pyr or Vcr. One plate was used for LIVE/DEAD staining and the other plate was used for AlamarBlue assay as described below. Complete NP cell media (Sciencell, 4801) containing basal media supplemented with 1% penicillin-streptomycin, 1% growth supplement and 2% FBS were used for maintaining cells in culture. To mimic the hypoxic disc environment, NP cells were cultured in a hypoxia chamber (Stem Cell Technologies, 27310) with 5% CO2, 3.5% O2, 91.5% N2 (Airgas) during the entire culture and treatment incubation period.
(§2) Pyr stock solution was diluted in complete NP media to achieve final concentrations of 500 μM, 1 mM and 2 mM Pyr. 16.9 μg/mL and 169 μg/mL Vcr stock solutions were prepared in 1X PBS then diluted in complete NP media to achieve final concentrations of 10, 25, 50, 100 nM and 200, 500 nM, respectively. Cells were incubated with 250 μL of final treatment solutions in duplicate wells per donor for three days. Cells in negative control group were incubated with 250 μL of complete NP media with 0.55% v/v 1X PBS as solvent control. On day 3 post-treatment, brightfield images at 4X magnification were taken using a BioTek Cytation1 Plate Imager (Agilent) to verify cell proliferation and observe cell morphology. Three experimental replicates were performed for each cell donor.
(§3) On day 3 of incubation with drug, media treatment solutions were removed from each well and cells were carefully rinsed with 200 μL of sterile 1X PBS to remove excess media. NP cells were stained with 150 μL of 2 μM Calcein AM and 6 μM EtHD-1 solution from LIVE/DEAD Viability/Cytotoxicity Kit (Thermo Fisher Scientific, L3224) for 30 minutes at room temperature protected from light. After staining, cells were gently rinsed with 200 μL sterile 1X PBS to remove excess staining solution. Excitation and emission wavelengths for live cell fluorescence is 495 and 515 nm and dead cell fluorescence is 495 and 635 nm. Using a BioTek Cytation1 Plate Imager (Agilent), GFP filter cube (Agilent, 1225101, ex: 451.5–486.5 nm, em: 505.5–544.5 nm) and RFP filter cubes (Agilent, 1225103, ex: 511-551nm, em: 573–613 nm), fluorescent images at 4X magnification of four regions per well were taken. Gen5 v3.11 software (Agilent) was used to count green (live) and orange (dead) cells in fluorescent images. Dead NP cell staining was verified and evident by positive EtHD-1 orange staining in kill control wells where cells were treated with 70% EtOH for 10 minutes (S4 Fig). Percentage of live cells were calculated by calculating the percentage of live cells over total cell counts as shown in Eq 3.
(§4) Cellviability(%)=Livecellcounts/Livecellcounts+Deadcellcounts×100% (3)

[2] = as above; assay type: cell-based, human; conditions: both sexes, human, human nucleus pulposus (NP) cells; 10 to 500 nM, day 3 post-treat; read-out: Percentage of viable cells
Protocol: as §1, §2, §3, §4

adult rat DRG explants = assay type: cell-based
[3] = systemic administration; cited from earlier work

CC[C@]1(O)C[C@H]2CN(CCc3c([nH]c4ccccc34)[C@@](C(=O)OC)(c3cc4c(cc3OC)N(C=O)[C@H]3[C@@](O)(C(=O)OC)[C@H](OC(C)=O)[C@]5(CC)C=CCN6CC[C@]43[C@@H]65)C2)C1 [Vcr, vincristine sulfate]
Time to axon degeneration [1]: ≤ 12 h
Time to complete axon fragmentation [1]: ≤ 36 h
Cytotoxicity (adult rat DRG neurons): does not induce cytotoxicity
Percent live (%) (Human NP cells; 10 nM, donor 1, day 3, single wells (Exp, Rep)): 90.3134% and 98.5594% and 99.6198% and 83.3102% and 99.7603% and 99.2074%
Percent live (%) (Human NP cells; 25 nM, donor 1, day 3, single wells (Exp, Rep)): 89.2996% and 89.1566% and 99.4877% and 99.866% and 98.4016% and 98.5294%
Percent live (%) (Human NP cells; 25 nM, donor 2, day 3, single wells (Exp, Rep)): 97.6127% and 96.3918% and 89.1374% and 87.5648% and 97.9899% and 92.8571%
Percent live (%) (Human NP cells; 50 nM, donor 1, day 3, single wells (Exp, Rep)): 99.536% and 94.3223% and 95.1923% and 99.2108% and 99.6933% and 99.3363%
Percent live (%) (Human NP cells; 50 nM, donor 2, day 3, single wells (Exp, Rep)): 98.5163% and 97.4555% and 94.0054% and 88.1057% and 96.8127% and 94.0758%
Percent live (%) (Human NP cells; 100 nM, donor 1, day 3, single wells (Exp, Rep)): 98.9571% and 99.7976% and 95.6589% and 96.3247% and 98.866% and 99.2797%
Percent live (%) (Human NP cells; 100 nM, donor 2, day 3, single wells (Exp, Rep)): 99.5495% and 99.5885% and 95.3125% and 93.5614% and 98.018% and 96.1078%
Percent live (%) (Human NP cells; 200 nM, donor 1, day 3, single wells (Exp, Rep)): 96.7883% and 99.5461% and 93.2203% and 99.7674% and 98.7402% and 97.893%
Percent live (%) (Human NP cells; 200 nM, donor 2, day 3, single wells (Exp, Rep)): 98.9101% and 97.7221% and 91.7808% and 91.6988% and 97.8182% and 96.8701%
Percent live (%) (Human NP cells; 500 nM, donor 1, day 3, single wells (Exp, Rep)): 99.2% and 97.9245% and 96.5986% and 97.28% and 92.5651% and 91.0506%
viability at 3 days [2]: > 81%
Axon length ratio compared to PBS control (adult rat DRG explants): significantly lower axon length ratio than PBS control
Day on which Caps axon length ratio threshold (0.45) was met (adult rat DRG explants): ≤ 1 days
Original axon length left behind (adult rat DRG explants): less than 8.1%
Day on which Caps axon length ratio threshold (0.45) was met (adult rat DRG explants; 100 nM): ≤ 2 days
Chemotherapy patients developing peripheral neuropathy [3]: 96%
